Measurements taken from ChEMBL document CHEMBL5380791, “Modular Biomimetic Strategy Enabled Discovery of Simplified Pseudo-Natural Macrocyclic P-Glycoprotein Inhibitors Capable of Overcoming Multidrug Resistance” (J Med Chem, 2023).
The source made the active and inactive calls. No cut-off for these calls is given here.

Assays:
KBv200 [1] = experiment: Reversal of vinorelbine resistance in human KBv200 cells assessed as reduction in cell viability incubated for 72 hrs in presence of vinorelbine (reference value: 224 to 228.30 nM); type: functional, cell-based; conditions: KBv200, 72 h, read-out: IC50
KBv200 [2] = experiment: Reversal fold, ratio of vinorelbine IC50 for cytotoxicity against human KBv200 cells over test compound IC50 for reversal of vinorelbine resistance in human KBv200 cells; type: functional
KBv200 [3] = experiment: Reversal of paclitaxel resistance in human KBv200 cells assessed as reduction in cell viability incubated for 72 hrs in presence of paclitaxel (reference value: 392.9+/-196.5 nM); type: functional, cell-based; conditions: KBv200, 72 h
KBv200 [4] = experiment: Reversal of adriamycin resistance in human KBv200 cells assessed as reduction in cell viability incubated for 72 hrs in presence of adriamycin (reference value: 1291.2+/-308.9 nM); type: functional, cell-based; conditions: KBv200, 72 h
KB = experiment: Reversal of vinorelbine resistance in human KB cells assessed as reduction in cell viability incubated for 72 hrs in presence of vinorelbine (reference value: 7.4+/-2.2 nM); type: functional, cell-based
K562/Adr = experiment: Reversal of vinorelbine resistance in human K562/Adr cells assessed as reduction in cell viability incubated for 72 hrs in presence of vinorelbine (reference value: 7320.6+/-2115.2 nM); type: functional, cell-based
K562 = experiment: Reversal of vinorelbine resistance in human K562 cells assessed as reduction in cell viability incubated for 72 hrs in presence of vinorelbine (reference value: 5.9+/-0.2 nM); type: functional, cell-based; conditions: K562, 72 h
NCI/ADR-RES = experiment: Reversal of vinorelbine resistance in human NCI/ADR-RES cells assessed as reduction in cell viability incubated for 72 hrs in presence of vinorelbine (reference value: 6125.7+/-3267.7 nM); type: functional, cell-based
OVCAR-8 = experiment: Reversal of vinorelbine resistance in human OVCAR-8 cells assessed as reduction in cell viability incubated for 72 hrs in presence of vinorelbine (reference value: 16.2+/-4.7 nM); type: functional, cell-based; conditions: OVCAR-8, 72 h
[5] = Cytotoxicity against human HEK293T cells assessed as reduction in cell viability incubated for 48 hrs by CCK-8 assay; type: toxicity, cell-based, HEK-293T
[6] = Cytotoxicity against human L02 cells assessed as reduction in cell viability incubated for 48 hrs by CCK-8 assay; type: toxicity, cell-based
[7] = Half life in CD-1 mouse at 30 mg/kg, po; type: ADME, organism-based; conditions: in vivo
[8] = Tmax in CD-1 mouse at 30 mg/kg, po; type: ADME, organism-based; conditions: in vivo
[9] = Cmax in CD-1 mouse at 30 mg/kg, po; type: ADME, organism-based; design: dose 30 mg/kg, route po; conditions: in vivo
[10] = AUClast in CD-1 mouse at 30 mg/kg, po; type: ADME, organism-based; design: dose 30 mg/kg, route po; conditions: in vivo
[11] = AUCinf in CD-1 mouse at 30 mg/kg, po; type: ADME, organism-based; design: dose 30 mg/kg, route po; conditions: in vivo
[12] = Clearance in CD-1 mouse at 3 mg/kg, iv; type: ADME, organism-based; conditions: in vivo
[13] = Oral bioavailability in CD-1 mouse at 30 mg/kg; type: ADME, organism-based; conditions: in vivo
[14] = Half life in CD-1 mouse at 25 mg/kg, ip; type: ADME, organism-based; conditions: in vivo
[15] = Half life in CD-1 mouse at 3 mg/kg, iv; type: ADME, organism-based; conditions: in vivo
[16] = Tmax in CD-1 mouse at 25 mg/kg, ip; type: ADME, organism-based; conditions: in vivo
[17] = Cmax in CD-1 mouse at 25 mg/kg, ip; type: ADME, organism-based; design: dose 25 mg/kg, route ip; conditions: in vivo
[18] = AUClast in CD-1 mouse at 25 mg/kg, ip; type: ADME, organism-based; design: dose 25 mg/kg, route ip; conditions: in vivo
[19] = AUClast in CD-1 mouse at 3 mg/kg, iv; type: ADME, organism-based; design: dose 3 mg/kg, route iv; conditions: in vivo
[20] = AUCinf in CD-1 mouse at 25 mg/kg, ip; type: ADME, organism-based; design: dose 25 mg/kg, route ip; conditions: in vivo
[21] = AUCinf in CD-1 mouse at 3 mg/kg, iv; type: ADME, organism-based; design: dose 3 mg/kg, route iv; conditions: in vivo
[22] = Bioavailability in CD-1 mouse at 25 mg/kg, ip; type: ADME, organism-based; conditions: in vivo
KBv200 [23] = experiment: Antitumor activity against human KBv200 cells xenografted in Balb/cA nude mouse assessed as mean tumor volume at 50 mg/kg, ip administered as single dose and measured on day 0; type: functional
KBv200 [24] = experiment: Antitumor activity against human KBv200 cells xenografted in Balb/cA nude mouse assessed as mean tumor volume at 50 mg/kg, ip qd administered for 13 days; type: functional; conditions: time 13 day
KBv200 [25] = experiment: Antitumor activity against human KBv200 cells xenografted in Balb/cA nude mouse assessed as T/C ratio at 50 mg/kg, ip qd administered for 13 days; type: functional; conditions: time 13 day
KBv200 [26] = experiment: Antitumor activity against human KBv200 cells xenografted in Balb/cA nude mouse assessed as tumor growth inhibition at 50 mg/kg, ip qd administered for 13 days; type: functional; conditions: KBv200, 312 h, time 13 day
[27] = Toxicity in Balb/cA nude mouse xenografted with human KBv200 cells assessed as changes in body weight at 50 mg/kg, ip qd administered for 13 days; type: organism-based; conditions: in vivo, 312 h, time 13 day
[28] = Toxicity in Balb/cA nude mouse xenografted with human KBv200 cells assessed as mortality at 50 mg/kg, ip qd administered for 13 days; type: organism-based; conditions: in vivo, 312 h, time 13 day
KBv200 [29] = experiment: Antitumor activity against human KBv200 cells xenografted in Balb/cA nude mouse assessed as mean tumor volume at 25 mg/kg, ip administered as single dose and measured on day 0 in presence of vinorelbine; type: functional
KBv200 [30] = experiment: Antitumor activity against human KBv200 cells xenografted in Balb/cA nude mouse assessed as mean tumor volume at 25 mg/kg, ip qd administered for 13 days in presence of vinorelbine; type: functional; conditions: time 13 day
KBv200 [31] = experiment: Antitumor activity against human KBv200 cells xenografted in Balb/cA nude mouse assessed as T/C ratio at 25 mg/kg, ip qd administered for 13 days in presence of vinorelbine; type: functional; conditions: time 13 day
KBv200 [32] = experiment: Antitumor activity against human KBv200 cells xenografted in Balb/cA nude mouse assessed as tumor growth inhibition at 25 mg/kg, ip qd administered for 13 days in presence of vinorelbine; type: functional; conditions: KBv200, 312 h, time 13 day
[33] = Toxicity in Balb/cA nude mouse xenografted with human KBv200 cells assessed as changes in body weight at 25 mg/kg, ip qd administered for 13 days in presence of vinorelbine; type: organism-based; conditions: in vivo, 312 h, time 13 day
[34] = Toxicity in Balb/cA nude mouse xenografted with human KBv200 cells assessed as mortality at 25 mg/kg, ip qd administered for 13 days in presence of vinorelbine; type: organism-based; conditions: in vivo, 312 h, time 13 day
KBv200 [35] = experiment: Antitumor activity against human KBv200 cells xenografted in Balb/cA nude mouse assessed as mean tumor volume at 50 mg/kg, ip administered as single dose and measured on day 0 in presence of vinorelbine; type: functional
KBv200 [36] = experiment: Antitumor activity against human KBv200 cells xenografted in Balb/cA nude mouse assessed as mean tumor volume at 50 mg/kg, ip qd administered for 13 days in presence of vinorelbine; type: functional; conditions: time 13 day
KBv200 [37] = experiment: Antitumor activity against human KBv200 cells xenografted in Balb/cA nude mouse assessed as T/C ratio at 50 mg/kg, ip qd administered for 13 days in presence of vinorelbine; type: functional; conditions: time 13 day
KBv200 [38] = experiment: Antitumor activity against human KBv200 cells xenografted in Balb/cA nude mouse assessed as tumor growth inhibition at 50 mg/kg, ip qd administered for 13 days in presence of vinorelbine; type: functional; conditions: KBv200, 312 h, time 13 day
[39] = Toxicity in Balb/cA nude mouse xenografted with human KBv200 cells assessed as changes in body weight at 50 mg/kg, ip qd administered for 13 days in presence of vinorelbine; type: organism-based; conditions: in vivo, 312 h, time 13 day
[40] = Toxicity in Balb/cA nude mouse xenografted with human KBv200 cells assessed as mortality at 50 mg/kg, ip qd administered for 13 days in presence of vinorelbine; type: organism-based; conditions: in vivo, 312 h, time 13 day
KBv200 [41] = experiment: Downregulation of P-gp mRNA expression level in human KBV200 cells by qRT-PCR analysis; type: functional, cell-based
[42] = molecular target: ATP-dependent translocase ABCB1 (Homo sapiens, UniProt P08183); experiment: Inhibition of P-gp in human KBv200 cells assessed as induction of conformation change by measuring increase in UIC-2 binding level at 50 uM incubated for 10 mins by UIC-2 reactivity shift assay; type: cell-based; conditions: kbv200, 10 min
Sequence of ATP-dependent translocase ABCB1 (P08183 whole entry): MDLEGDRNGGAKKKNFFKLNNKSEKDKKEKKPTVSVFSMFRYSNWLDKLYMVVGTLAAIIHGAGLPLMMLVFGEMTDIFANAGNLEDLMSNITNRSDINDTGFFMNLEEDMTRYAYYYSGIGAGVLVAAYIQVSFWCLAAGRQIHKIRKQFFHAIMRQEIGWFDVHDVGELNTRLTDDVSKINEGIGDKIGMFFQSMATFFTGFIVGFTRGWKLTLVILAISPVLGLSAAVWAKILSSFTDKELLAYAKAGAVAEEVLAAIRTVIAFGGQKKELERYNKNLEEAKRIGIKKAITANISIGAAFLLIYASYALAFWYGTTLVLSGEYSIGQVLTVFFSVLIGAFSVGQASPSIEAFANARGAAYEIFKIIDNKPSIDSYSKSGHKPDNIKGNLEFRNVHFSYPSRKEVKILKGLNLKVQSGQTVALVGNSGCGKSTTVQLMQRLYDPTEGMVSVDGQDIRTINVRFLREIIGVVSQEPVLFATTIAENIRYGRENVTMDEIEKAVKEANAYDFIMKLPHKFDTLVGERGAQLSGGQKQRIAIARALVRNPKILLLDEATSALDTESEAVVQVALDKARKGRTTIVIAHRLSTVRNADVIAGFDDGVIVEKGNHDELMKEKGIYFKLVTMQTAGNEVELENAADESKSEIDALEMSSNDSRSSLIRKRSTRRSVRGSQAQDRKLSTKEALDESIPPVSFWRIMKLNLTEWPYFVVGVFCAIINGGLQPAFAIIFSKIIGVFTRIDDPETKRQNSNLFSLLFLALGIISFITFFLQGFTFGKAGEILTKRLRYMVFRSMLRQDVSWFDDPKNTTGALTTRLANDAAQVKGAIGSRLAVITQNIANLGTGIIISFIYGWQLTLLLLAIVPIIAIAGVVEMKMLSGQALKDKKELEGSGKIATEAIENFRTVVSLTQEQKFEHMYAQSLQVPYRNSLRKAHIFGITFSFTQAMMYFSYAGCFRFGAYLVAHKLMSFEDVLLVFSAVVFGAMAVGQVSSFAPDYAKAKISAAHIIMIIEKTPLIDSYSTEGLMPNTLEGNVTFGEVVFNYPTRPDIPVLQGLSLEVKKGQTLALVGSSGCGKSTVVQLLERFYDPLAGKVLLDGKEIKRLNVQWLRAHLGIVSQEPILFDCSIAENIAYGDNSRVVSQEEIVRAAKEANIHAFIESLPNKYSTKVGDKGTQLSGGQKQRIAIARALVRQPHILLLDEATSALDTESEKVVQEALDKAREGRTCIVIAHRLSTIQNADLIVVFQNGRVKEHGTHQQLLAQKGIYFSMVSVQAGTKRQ

O=C1CCCCCCCCCCCNC(=O)[C@@H](Cc2ccccc2)NC(=O)/C(c2cccc3ccccc23)=C\C=C(\c2ccccc2)CN1
IC50 (KBv200 [1]): 0.02 nM | Ratio IC50 (KBv200 [2]): 432 | IC50 (KBv200 [3]): 0.9 nM | IC50 (KBv200 [4]): 37.5 nM | IC50 (KB): 0.7 nM | IC50 (K562/Adr): 75.9 nM | IC50 (K562): 0.8 nM | IC50 (NCI/ADR-RES): 116 nM | IC50 (OVCAR-8): 4.6 nM | IC50 at 48 h [5]: > 100 µM | IC50 at 48 h [6]: > 100 µM | half-life [7]: 154 min | Tmax [8]: 3 h | Cmax [9]: 2670 ng/mL | AUC(0-t) [10]: 9470 ng·h/mL | AUC(0-inf) [11]: 9490 ng·h/mL | clearance [12]: 11.9 mL/min/kg | bioavailability [13]: 21.9% | half-life [14]: 714 min | half-life [15]: 125 min | Tmax [16]: 2.67 h | Cmax [17]: 1930 ng/mL | AUC(0-t) [18]: 17000 ng·h/mL | AUC(0-t) [19]: 4320 ng·h/mL | AUC(0-inf) [20]: 20600 ng·h/mL | AUC(0-inf) [21]: 4350 ng·h/mL | bioavailability [22]: 47.3% | Activity (KBv200 [23]): 119.8 mm3 | Activity (KBv200 [24]): 1703.9 mm3 | T/C (KBv200 [25]): 113% | inhibition in vivo at 50 mg/kg (KBv200 [26]): 19% | Activity [27]: Non-Toxic | Activity [28]: Non-Toxic | Activity (KBv200 [29]): 122 mm3 | Activity (KBv200 [30]): 1384 mm3 | T/C (KBv200 [31]): 65% | inhibition in vivo at 25 mg/kg (KBv200 [32]): 35% | Activity [33]: Non-Toxic | Activity [34]: Non-Toxic | Activity (KBv200 [35]): 121.6 mm3 | Activity (KBv200 [36]): 1059.5 mm3 | T/C (KBv200 [37]): 48% | inhibition in vivo at 50 mg/kg (KBv200 [38]): 52% | Activity [39]: Non-Toxic | Activity [40]: Non-Toxic | Activity (KBv200 [41]): inactive | Activity [42]: Active
